Here are results for twelve molecules from patent publication US12195482B1 (Arcus Biosciences, Inc., priority 2022, dated 2025).

One test concerns the target T1, recombinant human TYRO3 (Homo sapiens, UniProt Q06418).
T1 construct: purchased Invitrogen
T1 sequence (Q06418 41-890): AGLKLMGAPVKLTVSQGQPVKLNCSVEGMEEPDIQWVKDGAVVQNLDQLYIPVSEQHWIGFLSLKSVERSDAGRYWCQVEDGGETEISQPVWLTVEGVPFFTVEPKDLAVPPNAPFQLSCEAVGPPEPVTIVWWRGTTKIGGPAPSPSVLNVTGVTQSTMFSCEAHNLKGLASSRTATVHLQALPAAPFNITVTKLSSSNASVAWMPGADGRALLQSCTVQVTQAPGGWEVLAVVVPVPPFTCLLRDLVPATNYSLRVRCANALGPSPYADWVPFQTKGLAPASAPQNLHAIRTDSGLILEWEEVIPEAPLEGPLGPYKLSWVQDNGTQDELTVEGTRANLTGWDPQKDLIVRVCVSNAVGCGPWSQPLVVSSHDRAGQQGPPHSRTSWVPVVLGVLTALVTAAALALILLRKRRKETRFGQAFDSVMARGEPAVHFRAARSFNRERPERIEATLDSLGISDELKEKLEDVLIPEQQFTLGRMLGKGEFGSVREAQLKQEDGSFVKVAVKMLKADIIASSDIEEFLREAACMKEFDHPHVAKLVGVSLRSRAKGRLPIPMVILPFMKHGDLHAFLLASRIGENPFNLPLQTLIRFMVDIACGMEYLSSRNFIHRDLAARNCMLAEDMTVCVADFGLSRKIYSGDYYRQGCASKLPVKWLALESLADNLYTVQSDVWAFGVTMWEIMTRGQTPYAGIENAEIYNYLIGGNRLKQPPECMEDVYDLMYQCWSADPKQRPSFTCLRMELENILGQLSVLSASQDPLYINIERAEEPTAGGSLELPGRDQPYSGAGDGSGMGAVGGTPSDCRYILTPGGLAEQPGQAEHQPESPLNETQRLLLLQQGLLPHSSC
Nature of the test: Biochemical potency, HTRF KinEASE-TK kinase assay. As to conditions: 1 nM TYRO3, 700 μM ATP. The procedure:
(§1) Measurement of Biochemical Compound Potency of Axl Inhibitors
(§2) Purified recombinant human AXL, TYRO3 and MER proteins were purchased from Invitrogen™. 10 nM AXL, 2 nM TYRO3 or MER were incubated with varying concentrations of compounds in 50 mM HEPES, pH 7.4, 10 mM MgCl2, 0.01% BSA, 1 mM DTT and 2% DMSO in a total volume of 20 μl in a 384-well microplate (Corning™ #3640) at RT for 1 h. The AXL, TYRO3 and MER enzymatic reaction was initiated by transferring 10 μl of enzyme and compound mixture into 10 μl of 1.6 μM TK Substrate-biotin (HTRF® KinEASE-TK kit, Cisbio) and 1400 μM ATP pre-incubated in 50 mM HEPES, pH 7.4, 10 mM MgCl2, 0.01% BSA, 1 mM DTT in a 384-well microplate (Corning™ #3640) at RT, giving the final reaction conditions: 5 nM AXL, 1 nM TYRO3 or MER, 800 nM TK Substrate-biotin and 700 μM ATP in 50 mM HEPES, pH 7.4, 10 mM MgCl2, 0.01% BSA, 1 mM DTT and 1% DMSO with varying concentrations of compounds. Following 2 h incubation at RT, the AXL, TYRO3 and MER enzymatic reaction was stopped by transfer of 10 μl of reaction into 10 μl of detection mix (400 nM Streptavidin-XL665, 200-fold dilution TK Antibody-Cryptate and detection buffer, HTRF® KinEASE-TK kit, Cisbio) in a white 384-well microplate (Perkin Elmer, OptiPlate 384). After 1 h incubation at RT, the plate was put into a plate reader (Evision) to read at 665/620 nm (acceptor/donor) for HTRF. The value of the DMSO blank (MIN inhibition=100% activity) was used as a negative control. The positive control was established by adding 5 μl of enzyme and DMSO mixture into 10 μl of detection mix followed by addition of 5 μl of TK Substrate-biotin and ATP mixture (MAX inhibition=0% activity). To calculate the percent activity, Equation 1 was used. Ratio665/620 is the value at a given compound concentration: […]

The next test concerns the target T2, recombinant human MER (Homo sapiens, UniProt Q12866).
T2 construct: purchased Invitrogen
T2 sequence (Q12866 21-999): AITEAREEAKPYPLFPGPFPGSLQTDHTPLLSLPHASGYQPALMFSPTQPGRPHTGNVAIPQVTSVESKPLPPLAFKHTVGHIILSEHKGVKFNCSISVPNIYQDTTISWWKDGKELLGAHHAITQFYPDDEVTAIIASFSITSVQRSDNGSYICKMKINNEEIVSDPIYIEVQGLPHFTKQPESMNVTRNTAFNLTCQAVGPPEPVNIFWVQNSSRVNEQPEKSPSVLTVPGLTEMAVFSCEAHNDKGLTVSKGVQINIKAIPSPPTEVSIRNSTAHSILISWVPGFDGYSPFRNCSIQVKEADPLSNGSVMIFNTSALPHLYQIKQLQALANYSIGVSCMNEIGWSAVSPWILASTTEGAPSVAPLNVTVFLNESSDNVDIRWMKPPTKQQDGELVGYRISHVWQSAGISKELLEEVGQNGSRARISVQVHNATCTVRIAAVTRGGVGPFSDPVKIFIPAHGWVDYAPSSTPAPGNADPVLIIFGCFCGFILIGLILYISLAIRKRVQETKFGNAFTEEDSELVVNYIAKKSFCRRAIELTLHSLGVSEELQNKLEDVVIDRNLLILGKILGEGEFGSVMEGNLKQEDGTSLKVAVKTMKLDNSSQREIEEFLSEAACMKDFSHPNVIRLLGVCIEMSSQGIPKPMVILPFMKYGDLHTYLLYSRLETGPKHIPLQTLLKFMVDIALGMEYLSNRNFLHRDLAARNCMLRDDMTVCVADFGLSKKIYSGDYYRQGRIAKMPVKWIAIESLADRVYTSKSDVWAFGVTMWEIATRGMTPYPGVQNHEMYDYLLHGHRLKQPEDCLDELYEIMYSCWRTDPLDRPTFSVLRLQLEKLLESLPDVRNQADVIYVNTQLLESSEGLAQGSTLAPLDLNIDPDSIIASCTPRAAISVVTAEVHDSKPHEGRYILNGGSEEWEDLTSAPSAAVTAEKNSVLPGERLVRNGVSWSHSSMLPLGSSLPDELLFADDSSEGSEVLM
Kind of test: Biochemical potency, HTRF KinEASE-TK kinase assay. As to conditions: 1 nM MER, 700 μM ATP. How it is done: as §1, §2

Some results are limits rather than exact numbers.

For the molecule `Cc1cc(F)cnc1-c1ccc(-c2n[nH]c3ncc(-c4ccc5c(c4)CC[C@@H](N4C6COCC4C6)CC5)cc23)cc1` [Example 28, 6-[(7S)-3-[3-[4-(5-Fluoro-3-methylpyridin-2-yl)phenyl]-1H-pyrazolo[3,4-b]pyridin-5-yl]-6,7,8,9-tetrahydro-5H-benzo[7]annulen-7-yl]-3-oxa-6-azabicyclo[3.1.1]heptane], the IC50 is less than 0.1 µM at recombinant human TYRO3 and 0.1 to 1 µM on recombinant human MER.
In the case of `Cc1cc(F)cnc1-c1ccc(-c2c[nH]c3ncc(-c4ccc5c(c4)CC[C@@H](N4C6COCC4C6)CC5)cc23)cc1` [Example 29, 6-[(7S)-3-[3-[4-(5-Fluoro-3-methylpyridin-2-yl)phenyl]-1H-pyrrolo[2,3-b]pyridin-5-yl]-6,7,8,9-tetrahydro-5H-benzo[7]annulen-7-yl]-3-oxa-6-azabicyclo[3.1.1]heptane], the IC50 on recombinant human TYRO3 and on recombinant human MER was 0.1 to 1 µM throughout.
Regarding `Cc1cc(-c2ncccc2C)ccc1-c1n[nH]c2ncc(-c3ccc4c(c3)CC[C@@H](N3C5COCC3C5)CC4)cc12` [Example 30, 6-[(7S)-3-[3-[2-Methyl-4-(3-methylpyridin-2-yl)phenyl]-1H-pyrazolo[3,4-b]pyridin-5-yl]-6,7,8,9-tetrahydro-5H-benzo[7]annulen-7-yl]-3-oxa-6-azabicyclo[3.1.1]heptane], the half-inhibitory concentration (IC50) on recombinant human TYRO3 is less than 0.1 µM; on recombinant human MER it was greater than 1 µM.
For the molecule `O=c1ccccn1-c1ccc(-c2n[nH]c3ncc(-c4ccc5c(c4)CC[C@@H](N4C6COCC4C6)CC5)cc23)cc1` [Example 31, 1-[4-[5-[(7S)-7-(3-Oxa-6-azabicyclo[3.1.1]heptan-6-yl)-6,7,8,9-tetrahydro-5H-benzo[7]annulen-3-yl]-1H-pyrazolo[3,4-b]pyridin-3-yl]phenyl]pyridin-2-one], the IC50 at recombinant human TYRO3 and at recombinant human MER was greater than 1 µM each time.
As for `c1ccc(-c2ccc(-c3c[nH]c4ncc(-c5ccc6c(c5)CC[C@@H](N[C@H]5CCCOC5)CC6)cc34)cc2)nc1` [Example 32, (3S)—N-[(7S)-3-[3-(4-Pyridin-2-ylphenyl)-1H-pyrrolo[2,3-b]pyridin-5-yl]-6,7,8,9-tetrahydro-5H-benzo[7]annulen-7-yl]oxan-3-amine], the IC50 at recombinant human TYRO3 and on recombinant human MER was 0.1 to 1 µM each time.
For `CN(C)C(=O)c1cccc(-c2ccc(-c3n[nH]c4ncc(-c5ccc6c(c5)CC[C@@H](N5C7COCC5C7)CC6)cc34)cc2)n1` [Example 94, N,N-Dimethyl-6-(4-{5-[(7S)-7-{3-oxa-6-azabicyclo[3.1.1]heptan-6-yl}-6,7,8,9-tetrahydro-5H-benzo[7]annulen-2-yl]-2H-pyrazolo[3,4-b]pyridin-3-yl}phenyl)pyridine-2-carboxamide], the IC50 on recombinant human TYRO3 and on recombinant human MER was greater than 1 µM throughout.
For `CC(C)(O)c1cccnc1-c1ccc(-c2c[nH]c3ncc(-c4ccc5c(c4)CC[C@@H](N4C6COCC4C6)CC5)cc23)cc1` [Example 95, 2-[2-(4-{5-[(7S)-7-{3-Oxa-6-azabicyclo[3.1.1]heptan-6-yl}-6,7,8,9-tetrahydro-5H-benzo[7]annulen-2-yl]-1H-pyrrolo[2,3-b]pyridin-3-yl}phenyl)pyridin-3-yl]propan-2-ol], the IC50 on recombinant human TYRO3 and on recombinant human MER was less than 0.1 µM throughout.
Turning to `Cc1cccnc1-c1ccc(-c2c[nH]c3ncc(-c4ccc5c(c4)CC[C@@H](N4C6COCC4C6)CC5)cc23)nc1` [Example 96, 3-Methyl-6′-{5-[(7S)-7-{3-oxa-6-azabicyclo[3.1.1]heptan-6-yl}-6,7,8,9-tetrahydro-5H-benzo[7]annulen-2-yl]-1H-pyrrolo[2,3-b]pyridin-3-yl}-2,3′-bipyridine], the 50% inhibitory concentration (IC50) on recombinant human TYRO3 was less than 0.1 µM; on recombinant human MER, 0.1 to 1 µM.
On to `Cc1ccccc1-c1ccc(-c2c[nH]c3ncc(-c4ccc5c(c4)CC[C@@H](N4C6COCC4C6)CC5)cc23)nc1` [Example 97, 6-[(7S)-2-{3-[5-(2-Methylphenyl)pyridin-2-yl]-1H-pyrrolo[2,3-b]pyridin-5-yl}-6,7,8,9-tetrahydro-5H-benzo[7]annulen-7-yl]-3-oxa-6-azabicyclo[3.1.1]heptane], for which the IC50 at recombinant human TYRO3 and on recombinant human MER was greater than 1 µM in each case.
Regarding `Cc1ccccc1-c1ccc(-c2n[nH]c3ncc(-c4ccc5c(c4)CC[C@@H](N4C6COCC4C6)CC5)cc23)nc1` [Example 98, 6-[(7S)-2-{3-[5-(2-Methylphenyl)pyridin-2-yl]-1H-pyrazolo[3,4-b]pyridin-5-yl}-6,7,8,9-tetrahydro-5H-benzo[7]annulen-7-yl]-3-oxa-6-azabicyclo[3.1.1]heptane], the IC50 on recombinant human TYRO3 and on recombinant human MER was greater than 1 µM each time.
Consider `FC(F)Oc1cccnc1-c1ccc(-c2n[nH]c3ncc(-c4ccc5c(c4)CC[C@@H](N4C6COCC4C6)CC5)cc23)cc1` [Example 99, 6-[(7S)-2-(3-{4-[3-(Difluoromethoxy)pyridin-2-yl]phenyl}-1H-pyrazolo[3,4-b]pyridin-5-yl)-6,7,8,9-tetrahydro-5H-benzo[7]annulen-7-yl]-3-oxa-6-azabicyclo[3.1.1]heptane], for which the IC50 at recombinant human TYRO3 and at recombinant human MER was 0.1 to 1 µM in each case.
For the molecule `CC(C)(O)c1cccnc1-c1ccc(-c2n[nH]c3ncc(-c4ccc5c(c4)CC[C@@H](N4C6COCC4C6)CC5)cc23)nc1` [Example 100, 2-(6′-{5-[(7S)-7-{3-Oxa-6-azabicyclo[3.1.1]heptan-6-yl}-6,7,8,9-tetrahydro-5H-benzo[7]annulen-2-yl]-1H-pyrazolo[3,4-b]pyridin-3-yl}-[2,3′-bipyridin]-3-yl)propan-2-ol], the figures for the IC50 on recombinant human TYRO3 and at recombinant human MER were 0.1 to 1 µM and greater than 1 µM, respectively.
